Laboratory results reported in US8735391B2, “Synthesis of functionalized octahydro-isoquinolin-1-one-8-carboxamides, octahydro-isoquinolin-1-one-8-carboxylic esters and analogs, and therapeutic methods” (University of Kansas, priority 2008, dated 2014).

biological target: DOR (Homo sapiens, UniProt P41143); test: Opioid secondary binding, DOR (Table 4); settings: Opioid secondary binding activity for Formula 10 analogs
Sequence (P41143 whole entry): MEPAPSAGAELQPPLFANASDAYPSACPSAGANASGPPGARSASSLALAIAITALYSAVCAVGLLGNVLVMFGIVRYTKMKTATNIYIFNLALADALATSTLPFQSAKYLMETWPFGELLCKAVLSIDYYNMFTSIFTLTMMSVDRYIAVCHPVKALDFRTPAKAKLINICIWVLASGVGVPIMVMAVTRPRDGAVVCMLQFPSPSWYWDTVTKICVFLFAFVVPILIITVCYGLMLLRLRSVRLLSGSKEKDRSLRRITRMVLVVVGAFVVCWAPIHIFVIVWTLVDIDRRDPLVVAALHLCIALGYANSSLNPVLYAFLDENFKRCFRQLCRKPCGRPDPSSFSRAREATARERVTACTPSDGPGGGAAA

Row | Compound | Ki [µM]
1 | CC(c1ccccc1)N1CCC2C=CCC(C(=O)Nc3cccc(Cl)c3)C2C1=O (mixture of isomers) [compound 12165] | 1.21
2 | CC(c1ccccc1)N1CCC2C=CCC(C(=O)Nc3ccc(F)c(F)c3)C2C1=O (mixture of isomers) [compound 12166] | 3.2
3 | CC(c1ccccc1)N1CCC2C=CCC(C(=O)Nc3nccs3)C2C1=O (mixture of isomers) [compound 12168] | 1.45
4 | O=C(Nc1cccnc1)[C@@H]1CC=C[C@@H]2CCN(C3CCCCC3)C(=O)[C@@H]21 (racemic) [compound 11921] | 0.836
5 | Cc1ccc(NC(=O)[C@@H]2CC=C[C@@H]3CCN(c4ccccc4)C(=O)[C@@H]32)cc1Cl (racemic) [compound 11925] | 0.015
6 | O=C(Nc1ccc([N+](=O)[O-])c(C(F)(F)F)c1)[C@@H]1CC=C[C@@H]2CCN(c3ccccc3)C(=O)[C@@H]21 (racemic) [compound 11926] | 0.035
7 | O=C(Nc1cccnc1)[C@@H]1CC=C[C@@H]2CCN(c3ccccc3)C(=O)[C@@H]21 (racemic) [compound 11927] | 2.1
8 | O=C(NCc1ccccc1)[C@@H]1CC=C[C@@H]2CCN(Cc3ccccc3)C(=O)[C@@H]21 (racemic) [compound 11930] | 0.739
9 | O=C(Nc1cccnc1)[C@@H]1CC=C[C@@H]2CCN(Cc3ccccc3)C(=O)[C@@H]21 (racemic) [compound 11933] | 3.53
10 | O=C(NC12CC3CC(CC(C3)C1)C2)[C@@H]1CC=C[C@@H]2CCN(CC3CC3)C(=O)[C@@H]21 (racemic) [compound 11940] | 0.701
11 | O=C(Nc1ccc(I)cc1)[C@@H]1CC=C[C@@H]2CCN(CC3CC3)C(=O)[C@@H]21 (racemic) [compound 11942] | 1.28
12 | Cc1cc(C)c(NC(=O)[C@@H]2CC=C[C@@H]3CCN(CC4CC4)C(=O)[C@@H]32)c(C)c1 (racemic) [compound 11945] | > 10
13 | O=C(NC12CC3CC(CC(C3)C1)C2)[C@@H]1CC=C[C@@H]2CCN(c3ccccc3)C(=O)[C@@H]21 (racemic) [compound 11946] | 0.116
14 | O=C(Nc1ccc([N+](=O)[O-])cc1)[C@@H]1CC=C[C@@H]2CCN(c3ccccc3)C(=O)[C@@H]21 (racemic) [compound 11947] | 0.141
15 | O=C(Nc1ccc(I)cc1)[C@@H]1CC=C[C@@H]2CCN(c3ccccc3)C(=O)[C@@H]21 (racemic) [compound 11948] | 0.083
16 | O=C(NCc1cccc(Br)c1)[C@@H]1CC=C[C@@H]2CCN(c3ccccc3)C(=O)[C@@H]21 (racemic) [compound 11949] | 0.302
17 | Cc1ccc(CNC(=O)[C@@H]2CC=C[C@@H]3CCN(c4ccccc4)C(=O)[C@@H]32)cc1 (racemic) [compound 11950] | 0.297
18 | Cc1cc(C)c(NC(=O)[C@@H]2CC=C[C@@H]3CCN(c4ccccc4)C(=O)[C@@H]32)c(C)c1 (racemic) [compound 11951] | 4.3
19 | Cc1ccc(CNC(=O)[C@@H]2CC=C[C@@H]3CCN(Cc4ccccc4)C(=O)[C@@H]32)cc1 (racemic) [compound 11956] | 2.36
20 | Cc1cc(C)c(NC(=O)[C@@H]2CC=C[C@@H]3CCN(Cc4ccccc4)C(=O)[C@@H]32)c(C)c1 (racemic) [compound 11957] | 3.22
21 | O=C([C@@H]1CC=C[C@@H]2CCN(C3CCCCC3)C(=O)[C@@H]21)N1CCCC1 (racemic) [compound 12084] | 6.29

Row | Compound | Ki [µM]
22 | O=C(NCC1CC1)[C@@H]1CC=C[C@@H]2CCN(C3CCCCC3)C(=O)[C@@H]21 (racemic) [compound 12085] | 0.475
23 | CN(C)C(=O)[C@@H]1CC=C[C@@H]2CCN(C3CCCCC3)C(=O)[C@@H]21 (racemic) [compound 12086] | > 10
24 | O=C(Nc1ccc(Cl)cc1)[C@@H]1CC=C[C@@H]2CCN(C3CCCCC3)C(=O)[C@@H]21 (racemic) [compound 12087] | 0.582
25 | O=C(Nc1cc(F)c(F)c(F)c1)[C@@H]1CC=C[C@@H]2CCN(C3CCCCC3)C(=O)[C@@H]21 (racemic) [compound 12088] | 2.79
26 | O=C(NCC1CC1)[C@@H]1CC=C[C@@H]2CCN(CC3CC3)C(=O)[C@@H]21 (racemic) [compound 12090] | 5.65
27 | O=C(Nc1ccc(Cl)cc1)[C@@H]1CC=C[C@@H]2CCN(CC3CC3)C(=O)[C@@H]21 (racemic) [compound 12092] | 3.23
28 | O=C(Nc1cc(F)c(F)c(F)c1)[C@@H]1CC=C[C@@H]2CCN(CC3CC3)C(=O)[C@@H]21 (racemic) [compound 12093] | 4.37
29 | O=C([C@@H]1CC=C[C@@H]2CCN(c3ccccc3)C(=O)[C@@H]21)N1CCCC1 (racemic) [compound 12094] | > 10
30 | O=C(NCC1CC1)[C@@H]1CC=C[C@@H]2CCN(c3ccccc3)C(=O)[C@@H]21 (racemic) [compound 12095] | 1.23
31 | CN(C)C(=O)[C@@H]1CC=C[C@@H]2CCN(c3ccccc3)C(=O)[C@@H]21 (racemic) [compound 12096] | > 10
32 | O=C(Nc1ccc(Cl)cc1)[C@@H]1CC=C[C@@H]2CCN(c3ccccc3)C(=O)[C@@H]21 (racemic) [compound 12097] | 0.168
33 | O=C(Nc1cc(F)c(F)c(F)c1)[C@@H]1CC=C[C@@H]2CCN(c3ccccc3)C(=O)[C@@H]21 (racemic) [compound 12098] | 0.289
34 | O=C1[C@H]2[C@H](C=CC[C@H]2C(=O)N2CCCC2)CCN1Cc1ccccc1 (racemic) [compound 12099] | 6.65
35 | O=C(NCC1CC1)[C@@H]1CC=C[C@@H]2CCN(Cc3ccccc3)C(=O)[C@@H]21 (racemic) [compound 12100] | 0.539
36 | CN(C)C(=O)[C@@H]1CC=C[C@@H]2CCN(Cc3ccccc3)C(=O)[C@@H]21 (racemic) [compound 12101] | > 10
37 | O=C(Nc1cc(F)c(F)c(F)c1)[C@@H]1CC=C[C@@H]2CCN(Cc3ccccc3)C(=O)[C@@H]21 (racemic) [compound 12103] | 0.18
38 | C=CCNC(=O)[C@@H]1CC=C[C@@H]2CCN(CC3CCCCC3)C(=O)[C@@H]21 (racemic) [compound 12110] | 1.43
39 | CN(C(=O)[C@@H]1CC=C[C@@H]2CCN(CC3CCCCC3)C(=O)[C@@H]21)c1ccccc1 (racemic) [compound 12113] | 2.83
40 | CCOC(=O)C1CCCCN1C(=O)[C@@H]1CC=C[C@@H]2CCN(CC3CCCCC3)C(=O)[C@@H]21 (mixture of isomers) [compound 12115] | 9.15
41 | NC(=O)c1ccccc1NC(=O)[C@@H]1CC=C[C@@H]2CCN(c3ccccc3)C(=O)[C@@H]21 (racemic) [compound 12117] | 0.648

biological target: KOR (Homo sapiens, UniProt P41145); test: Opioid secondary binding, KOR (Tables 4, 5, 8, 9); settings: not given
Sequence (P41145 whole entry): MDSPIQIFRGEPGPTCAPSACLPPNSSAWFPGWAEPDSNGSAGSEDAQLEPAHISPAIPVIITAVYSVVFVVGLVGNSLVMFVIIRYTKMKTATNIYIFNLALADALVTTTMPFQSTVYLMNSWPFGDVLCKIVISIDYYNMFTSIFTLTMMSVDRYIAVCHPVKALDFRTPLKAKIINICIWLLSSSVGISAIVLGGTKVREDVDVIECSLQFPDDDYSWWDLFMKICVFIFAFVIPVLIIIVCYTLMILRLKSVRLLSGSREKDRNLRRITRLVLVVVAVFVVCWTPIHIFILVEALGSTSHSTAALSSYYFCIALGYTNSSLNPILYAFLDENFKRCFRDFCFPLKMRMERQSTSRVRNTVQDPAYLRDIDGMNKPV

Row | Compound | Ki [µM]
42 | O=C(NC1CCCCC1)[C@@H]1CC=C[C@@H]2CCN(Cc3ccccc3)C(=O)[C@@H]21 [compound 11791] | 1.3

same assay, conditions: Opioid secondary binding activity for Formula 10 analogs; read-out: KOR, Ki

Row | Compound | Ki [µM]
43 | CC(C)N1CCC2C=CCC(C(=O)Nc3ccc(F)c(F)c3)C2C1=O (racemic) [compound 10847] | 4.2
44 | CC(C)N1CCC2C=CCC(C(=O)Nc3ccc(Cl)c(C(F)(F)F)c3)C2C1=O (racemic) [compound 10849] | 0.261
45 | CC(C)N1CCC2C=CCC(C(=O)Nc3ccc(Cl)cc3Cl)C2C1=O (racemic) [compound 10850] | 2.41
46 | O=C(Nc1ccc(Cl)c(C(F)(F)F)c1)C1CCCC2CCN(C3CCCCC3)C(=O)C21 (racemic) [compound 11479] | 0.792
47 | O=C(NCc1ccc(Cl)c(C(F)(F)F)c1)[C@@H]1CC=C[C@@H]2CCN(C3CCCCC3)C(=O)[C@@H]21 (racemic) [compound 11856] | 0.531
48 | O=C(Nc1ccc(Br)c(C(F)(F)F)c1)[C@@H]1CC=C[C@@H]2CCN(C3CCCCC3)C(=O)[C@@H]21 (racemic) [compound 11857] | 0.814
49 | O=C(Nc1ccc(Cl)cc1C(F)(F)F)[C@@H]1CC=C[C@@H]2CCN(C3CCCCC3)C(=O)[C@@H]21 (racemic) [compound 11858] | 0.866
50 | Cc1cc(NC(=O)[C@@H]2CC=C[C@@H]3CCN(C4CCCCC4)C(=O)[C@@H]32)ccc1Cl (racemic) [compound 11860] | 0.716
51 | O=C(Nc1ccc(C(F)(F)F)cc1Cl)[C@@H]1CC=C[C@@H]2CCN(c3ccccc3)C(=O)[C@@H]21 (racemic) [compound 11865] | 0.18
52 | O=C(Nc1ccc(C(F)(F)F)cc1Cl)[C@@H]1CC=C[C@@H]2CCN(CCc3ccccc3)C(=O)[C@@H]21 (racemic) [compound 11877] | 3.3
53 | O=C(NC1CCCCC1)[C@@H]1CC=C[C@@H]2CCN(CC3CCCCC3)C(=O)[C@@H]21 (racemic) [compound 11886] | 0.177
54 | O=C(Nc1ccccc1)[C@@H]1CC=C[C@@H]2CCN(CC3CCCCC3)C(=O)[C@@H]21 (racemic) [compound 11887] | 0.187
55 | O=C(Nc1ccc(F)c(F)c1)[C@@H]1CC=C[C@@H]2CCN(CC3CCCCC3)C(=O)[C@@H]21 (racemic) [compound 11889] | 0.131
56 | O=C(Nc1ccc(Cl)c(C(F)(F)F)c1)[C@@H]1CC=C[C@@H]2CCN(CC3CCCCC3)C(=O)[C@@H]21 (racemic) [compound 11890] | 0.84
57 | O=C1NCC[C@H]2C=CC[C@@H](C(=O)Nc3ccc(Cl)c(C(F)(F)F)c3)[C@@H]12 (racemic) [compound 11896] | 0.729
58 | O=C(Nc1ccc(F)cc1)[C@@H]1CC=C[C@@H]2CCN(Cc3ccccc3)C(=O)[C@@H]21 (racemic) [compound 11909] | 0.276
59 | O=C(NCc1ccccc1)[C@@H]1CC=C[C@@H]2CCN(C3CCCCC3)C(=O)[C@@H]21 (racemic) [compound 11918] | 0.358
60 | Cc1ccc(NC(=O)[C@@H]2CC=C[C@@H]3CCN(C4CCCCC4)C(=O)[C@@H]32)cc1Cl (racemic) [compound 11919] | 0.102
61 | O=C(Nc1ccc([N+](=O)[O-])c(C(F)(F)F)c1)[C@@H]1CC=C[C@@H]2CCN(C3CCCCC3)C(=O)[C@@H]21 (racemic) [compound 11920] | 5.11
62 | COc1cccc(F)c1CN1CC[C@H]2C=CC[C@@H](C(=O)Nc3ccc(C)c(F)c3F)[C@H]2C1=O (racemic) [compound 13485] | 5.12
63 | O=C(Nc1c(F)c(F)c(F)c(F)c1F)[C@@H]1CC=C[C@@H]2CCN(Cc3ccccc3)C(=O)[C@@H]21 (racemic) [compound 14309] | 2.97
64 | O=C(Nc1ccccc1)[C@@H]1CC=C[C@@H]2CCN(Cc3ccccc3)C(=O)[C@@H]21 [compound 11793] | 1.61
